Reference: patent US10160785B2, “Antimicrobial peptides and their use for the treatment of topical infections” (priority 2015, dated 2018)
Where a SMILES comes first, the peptide text is derived from it.

How the values were obtained:
Type in all cases: cell-based
[1] = system: Candida albicans (Olomouc) biofilm; experiment: C. albicans biofilm, remaining metabolic activity (XTT)
Method in brief: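 Candida albicans (Olomouc) biofilms grown 48 h at 37 °C in MOPS-buffered RPMI 1640 from 1×10^6 CFU inocula, then exposed 20 h to peptide at 0.39-200 μmol.l^−1. XTT/PMS staining for 90 min, A540; remaining metabolic activity expressed as percent of untreated biofilm after blank correction.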

[2] = system: Candida albicans ATCC MYA-2876; experiment: microbe, parasite or virus in culture; conditions: RPMI broth microdilution, 35° C., 48 hours, visual
Method in brief: (§1)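 Five colonies from 24 h cultures were suspended in saline to OD600 0.18 and diluted 1:50 and then 1:20 into RPMI 1640 containing MOPS. This inoculum was mixed 1:1 with peptide dilutions of 0.625–160 μmol.l^−1. After 48 h at 35 °C, the MIC was scored by eye as the first well lacking growth.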

[3] = system: Candida albicans (Olomouc); experiment: microbe, parasite or virus in culture; conditions: RPMI broth microdilution, 35° C., 48 hours, visual
Method in brief: as §1

[4] = system: Candida dubliniensis ATCC MYA-646; experiment: microbe, parasite or virus in culture; conditions: RPMI broth microdilution, 35° C., 48 hours, visual
Method in brief: as §1

[5] = system: Candida krusei ATCC 6258; experiment: microbe, parasite or virus in culture; conditions: RPMI broth microdilution, 35° C., 48 hours, visual
Method in brief: as §1

[6] = system: Candida glabrata ATCC 2001; experiment: microbe, parasite or virus in culture; conditions: RPMI broth microdilution, 35° C., 48 hours, visual
Method in brief: as §1

[7] = system: Candida glabrata DSY 565; experiment: microbe, parasite or virus in culture; conditions: RPMI broth microdilution, 35° C., 48 hours, visual
Method in brief: as §1

[8] = system: Candida tropicalis ATCC 750; experiment: microbe, parasite or virus in culture; conditions: RPMI broth microdilution, 35° C., 48 hours, visual
Method in brief: as §1

SMILES: CCCC[C@H](NC(=O)[C@H](CC(C)C)NC(=O)[C@H](CO)NC(=O)[C@H](CO)NC(=O)[C@H](CCCC)NC(=O)[C@@H](NC(=O)CN)[C@@H](C)CC)C(=O)N[C@@H](CCCCN)C(=O)N[C@@H](CCCCN)C(=O)N[C@@H](CC(C)C)C(=O)N[C@@H](CCCCN)C(=O)N[C@@H](CCCCN)C(=O)N[C@H](C(=O)N[C@H](C(=O)N[C@@H](C)C(=O)N[C@@H](CCCCN)C(N)=O)[C@@H](C)CC)[C@@H](C)CC [V] (HELM PEPTIDE1{G.I.[Nle].S.S.L.[Nle].K.K.L.K.K.I.I.A.K.[am]}$$$$V2.0)
- Metabolic activity of C. albicans (%) ([1]; peptide concentration 6.25 μmol · l^−1, 20 hours): 106.4%
- Metabolic activity of C. albicans (%) ([1]; peptide concentration 12.5 μmol · l^−1, 20 hours): 89.5%
- Metabolic activity of C. albicans (%) ([1]; peptide concentration 25 μmol · l^−1, 20 hours): 45.0%
- Metabolic activity of C. albicans (%) ([1]; peptide concentration 50 μmol · l^−1, 20 hours): 6.9%
- Metabolic activity of C. albicans (%) ([1]; peptide concentration 100 μmol · l^−1, 20 hours): 2.4%
- Metabolic activity of C. albicans (%) ([1]; peptide concentration 200 μmol · l^−1, 20 hours): 0.4%
- Antifungal activity MIC C. albicans ATCC MYA-2876 [2]: 19.0 µM
- Antifungal activity MIC C. albicans Olomouc [3]: 12.0 µM
- Antifungal activity MIC C. dubliniensis ATCC MYA-646 [4]: 26.0 µM
- Antifungal activity MIC C. krusei ATCC 6258 [5]: 5.0 µM
- Antifungal activity MIC C. glabrata ATCC 2001 [6]: 24.0 µM
- Antifungal activity MIC C. glabrata DSY 565 [7]: 44.0 µM
- Antifungal activity MIC C. tropicalis ATCC 750 [8]: 1.0 µM
